In ChEMBL document CHEMBL5723584 (2023):

Columns and labels:
Settings in all cases: Compound concentration 1.0 uM
[1] = molecular target: 5'-AMP-activated protein kinase catalytic subunit alpha-2 (Homo sapiens) (UniProt P54646); test: activity of AMPKalpha2(h) at 1.0 µM in the Eurofins Kinase panel
[2] = molecular target: NUAK family SNF1-like kinase 1 (Homo sapiens) (UniProt O60285); test: activity of ARK5(h) at 1.0 µM in the Eurofins Kinase panel
[3] = molecular target: Serine/threonine-protein kinase BRSK1 (Homo sapiens) (UniProt Q8TDC3); test: activity of BrSK1(h) at 1.0 µM in the Eurofins Kinase panel
[4] = molecular target: Calcium/calmodulin-dependent protein kinase type II subunit beta (Homo sapiens) (UniProt Q13554); test: activity of CaMKIIbeta(h) at 1.0 µM in the Eurofins Kinase panel
[5] = molecular target: Calcium/calmodulin-dependent protein kinase kinase 1 (Homo sapiens) (UniProt Q8N5S9); test: activity of CaMKK1(h) at 1.0 µM in the Eurofins Kinase panel
[6] = molecular target: Calcium/calmodulin-dependent protein kinase kinase 2 (Homo sapiens) (UniProt Q96RR4); test: activity of CaMKK2(h) at 1.0 µM in the Eurofins Kinase panel
Chain of Calcium/calmodulin-dependent protein kinase kinase 2 (Homo sapiens) (Q96RR4 2-588 limits assumed): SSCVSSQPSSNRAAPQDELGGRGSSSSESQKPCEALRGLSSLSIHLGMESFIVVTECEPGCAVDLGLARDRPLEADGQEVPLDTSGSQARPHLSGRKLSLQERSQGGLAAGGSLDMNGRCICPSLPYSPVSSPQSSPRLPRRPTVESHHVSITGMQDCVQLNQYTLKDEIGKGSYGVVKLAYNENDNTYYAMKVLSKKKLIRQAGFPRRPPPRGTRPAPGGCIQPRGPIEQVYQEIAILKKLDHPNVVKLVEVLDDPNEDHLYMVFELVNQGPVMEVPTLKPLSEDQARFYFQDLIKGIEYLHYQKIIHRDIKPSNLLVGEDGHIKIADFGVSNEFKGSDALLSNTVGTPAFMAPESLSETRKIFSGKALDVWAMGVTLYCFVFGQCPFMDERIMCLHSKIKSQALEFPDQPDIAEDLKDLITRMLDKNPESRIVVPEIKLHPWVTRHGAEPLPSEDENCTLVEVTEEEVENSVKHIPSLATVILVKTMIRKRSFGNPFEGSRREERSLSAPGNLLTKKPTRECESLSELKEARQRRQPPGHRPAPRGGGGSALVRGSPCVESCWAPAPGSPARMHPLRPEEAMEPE

[7] = molecular target: Cyclin-Y/Cyclin-dependent kinase 16 (Homo sapiens) (UniProt Q00536+Q8ND76); test: activity of CDK16/cyclinY(h) at 1.0 µM in the Eurofins Kinase panel; type: protein-complex assay
[8] = molecular target: CDK17/Cyclin-Y (Homo sapiens) (UniProt Q00537+Q8ND76); test: activity of CDK17/cyclinY(h) at 1.0 µM in the Eurofins Kinase panel; type: protein-complex assay
[9] = molecular target: CDK18/Cyclin Y (Homo sapiens) (UniProt Q07002+Q8ND76); test: activity of CDK18/cyclinY(h) at 1.0 µM in the Eurofins Kinase panel; type: protein-complex assay
[10] = molecular target: Cyclin-dependent kinase 2/cyclin A (Homo sapiens) (UniProt P24941+P20248+P78396); test: activity of CDK2/cyclinA(h) at 1.0 µM in the Eurofins Kinase panel; type: protein-complex assay
[11] = molecular target: CDK7/Cyclin H/MNAT1 (Homo sapiens) (UniProt P51946+P50613+P51948); test: activity of CDK7/cyclinH/MAT1(h) at 1.0 µM in the Eurofins Kinase panel; type: protein-complex assay
[12] = molecular target: CDK9/cyclin T1 (Homo sapiens) (UniProt O60563+P50750); test: activity of CDK9/cyclin T1(h) at 1.0 µM in the Eurofins Kinase panel; type: protein-complex assay
[13] = molecular target: Ephrin type-A receptor 1 (Homo sapiens) (UniProt P21709); test: activity of EphA1(h) at 1.0 µM in the Eurofins Kinase panel
Chain of Ephrin type-A receptor 1 (Homo sapiens) (P21709 whole entry): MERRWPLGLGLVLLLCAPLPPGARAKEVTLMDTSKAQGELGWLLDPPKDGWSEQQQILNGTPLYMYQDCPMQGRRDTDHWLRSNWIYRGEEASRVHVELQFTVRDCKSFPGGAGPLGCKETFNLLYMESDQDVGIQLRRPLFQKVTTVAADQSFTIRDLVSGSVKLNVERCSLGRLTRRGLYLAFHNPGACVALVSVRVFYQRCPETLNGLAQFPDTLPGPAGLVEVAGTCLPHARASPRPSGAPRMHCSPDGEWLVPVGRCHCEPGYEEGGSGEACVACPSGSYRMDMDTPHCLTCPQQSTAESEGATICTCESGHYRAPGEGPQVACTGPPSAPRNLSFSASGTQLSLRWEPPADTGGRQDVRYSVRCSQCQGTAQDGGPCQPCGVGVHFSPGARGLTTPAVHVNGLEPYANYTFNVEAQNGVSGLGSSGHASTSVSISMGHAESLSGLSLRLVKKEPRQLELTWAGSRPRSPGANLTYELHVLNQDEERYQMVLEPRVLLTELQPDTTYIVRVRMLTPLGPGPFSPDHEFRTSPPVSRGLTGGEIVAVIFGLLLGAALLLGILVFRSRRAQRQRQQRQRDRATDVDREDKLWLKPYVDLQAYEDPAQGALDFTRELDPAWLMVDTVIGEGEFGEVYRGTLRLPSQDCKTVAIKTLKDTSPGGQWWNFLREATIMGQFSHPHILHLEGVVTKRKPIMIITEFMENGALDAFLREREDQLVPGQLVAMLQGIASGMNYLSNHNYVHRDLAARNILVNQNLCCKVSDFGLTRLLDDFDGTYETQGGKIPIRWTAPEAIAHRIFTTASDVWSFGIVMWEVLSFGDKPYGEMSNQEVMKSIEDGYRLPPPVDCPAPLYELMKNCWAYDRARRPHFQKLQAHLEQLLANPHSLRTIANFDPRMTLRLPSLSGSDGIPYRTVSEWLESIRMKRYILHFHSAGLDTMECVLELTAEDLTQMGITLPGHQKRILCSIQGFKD

[14] = molecular target: Focal adhesion kinase 1 (Homo sapiens) (UniProt Q05397); test: activity of FAK(h) at 1.0 µM in the Eurofins Kinase panel
[15] = molecular target: Vascular endothelial growth factor receptor 3 (Homo sapiens) (UniProt P35916); test: activity of Flt4(h) at 1.0 µM in the Eurofins Kinase panel
[16] = molecular target: Glycogen synthase kinase-3 beta (Homo sapiens) (UniProt P49841); test: activity of GSK3beta(h) at 1.0 µM in the Eurofins Kinase panel
[17] = molecular target: Tyrosine-protein kinase HCK (Homo sapiens) (UniProt P08631); test: activity of Hck(h) activated at 1.0 µM in the Eurofins Kinase panel
[18] = molecular target: Eukaryotic translation initiation factor 2-alpha kinase 1 (Homo sapiens) (UniProt Q9BQI3); test: activity of HRI(h) at 1.0 µM in the Eurofins Kinase panel
[19] = molecular target: Insulin-like growth factor 1 receptor (Homo sapiens) (UniProt P08069); test: activity of IGF-1R(h), activated at 1.0 µM in the Eurofins Kinase panel
[20] = molecular target: Inhibitor of nuclear factor kappa-B kinase subunit epsilon (Homo sapiens) (UniProt Q14164); test: activity of IKKepsilon(h) at 1.0 µM in the Eurofins Kinase panel
[21] = molecular target: Tyrosine-protein kinase ITK/TSK (Homo sapiens) (UniProt Q08881); test: activity of Itk(h) at 1.0 µM in the Eurofins Kinase panel
[22] = molecular target: LIM domain kinase 2 (Homo sapiens) (UniProt P53671); test: activity of LIMK2(h) at 1.0 µM in the Eurofins Kinase panel
[23] = molecular target: Leucine-rich repeat serine/threonine-protein kinase 2 (Homo sapiens) (UniProt Q5S007); test: activity of LRRK2(h) at 1.0 µM in the Eurofins Kinase panel
Chain of Leucine-rich repeat serine/threonine-protein kinase 2 (Homo sapiens) (Q5S007 whole entry): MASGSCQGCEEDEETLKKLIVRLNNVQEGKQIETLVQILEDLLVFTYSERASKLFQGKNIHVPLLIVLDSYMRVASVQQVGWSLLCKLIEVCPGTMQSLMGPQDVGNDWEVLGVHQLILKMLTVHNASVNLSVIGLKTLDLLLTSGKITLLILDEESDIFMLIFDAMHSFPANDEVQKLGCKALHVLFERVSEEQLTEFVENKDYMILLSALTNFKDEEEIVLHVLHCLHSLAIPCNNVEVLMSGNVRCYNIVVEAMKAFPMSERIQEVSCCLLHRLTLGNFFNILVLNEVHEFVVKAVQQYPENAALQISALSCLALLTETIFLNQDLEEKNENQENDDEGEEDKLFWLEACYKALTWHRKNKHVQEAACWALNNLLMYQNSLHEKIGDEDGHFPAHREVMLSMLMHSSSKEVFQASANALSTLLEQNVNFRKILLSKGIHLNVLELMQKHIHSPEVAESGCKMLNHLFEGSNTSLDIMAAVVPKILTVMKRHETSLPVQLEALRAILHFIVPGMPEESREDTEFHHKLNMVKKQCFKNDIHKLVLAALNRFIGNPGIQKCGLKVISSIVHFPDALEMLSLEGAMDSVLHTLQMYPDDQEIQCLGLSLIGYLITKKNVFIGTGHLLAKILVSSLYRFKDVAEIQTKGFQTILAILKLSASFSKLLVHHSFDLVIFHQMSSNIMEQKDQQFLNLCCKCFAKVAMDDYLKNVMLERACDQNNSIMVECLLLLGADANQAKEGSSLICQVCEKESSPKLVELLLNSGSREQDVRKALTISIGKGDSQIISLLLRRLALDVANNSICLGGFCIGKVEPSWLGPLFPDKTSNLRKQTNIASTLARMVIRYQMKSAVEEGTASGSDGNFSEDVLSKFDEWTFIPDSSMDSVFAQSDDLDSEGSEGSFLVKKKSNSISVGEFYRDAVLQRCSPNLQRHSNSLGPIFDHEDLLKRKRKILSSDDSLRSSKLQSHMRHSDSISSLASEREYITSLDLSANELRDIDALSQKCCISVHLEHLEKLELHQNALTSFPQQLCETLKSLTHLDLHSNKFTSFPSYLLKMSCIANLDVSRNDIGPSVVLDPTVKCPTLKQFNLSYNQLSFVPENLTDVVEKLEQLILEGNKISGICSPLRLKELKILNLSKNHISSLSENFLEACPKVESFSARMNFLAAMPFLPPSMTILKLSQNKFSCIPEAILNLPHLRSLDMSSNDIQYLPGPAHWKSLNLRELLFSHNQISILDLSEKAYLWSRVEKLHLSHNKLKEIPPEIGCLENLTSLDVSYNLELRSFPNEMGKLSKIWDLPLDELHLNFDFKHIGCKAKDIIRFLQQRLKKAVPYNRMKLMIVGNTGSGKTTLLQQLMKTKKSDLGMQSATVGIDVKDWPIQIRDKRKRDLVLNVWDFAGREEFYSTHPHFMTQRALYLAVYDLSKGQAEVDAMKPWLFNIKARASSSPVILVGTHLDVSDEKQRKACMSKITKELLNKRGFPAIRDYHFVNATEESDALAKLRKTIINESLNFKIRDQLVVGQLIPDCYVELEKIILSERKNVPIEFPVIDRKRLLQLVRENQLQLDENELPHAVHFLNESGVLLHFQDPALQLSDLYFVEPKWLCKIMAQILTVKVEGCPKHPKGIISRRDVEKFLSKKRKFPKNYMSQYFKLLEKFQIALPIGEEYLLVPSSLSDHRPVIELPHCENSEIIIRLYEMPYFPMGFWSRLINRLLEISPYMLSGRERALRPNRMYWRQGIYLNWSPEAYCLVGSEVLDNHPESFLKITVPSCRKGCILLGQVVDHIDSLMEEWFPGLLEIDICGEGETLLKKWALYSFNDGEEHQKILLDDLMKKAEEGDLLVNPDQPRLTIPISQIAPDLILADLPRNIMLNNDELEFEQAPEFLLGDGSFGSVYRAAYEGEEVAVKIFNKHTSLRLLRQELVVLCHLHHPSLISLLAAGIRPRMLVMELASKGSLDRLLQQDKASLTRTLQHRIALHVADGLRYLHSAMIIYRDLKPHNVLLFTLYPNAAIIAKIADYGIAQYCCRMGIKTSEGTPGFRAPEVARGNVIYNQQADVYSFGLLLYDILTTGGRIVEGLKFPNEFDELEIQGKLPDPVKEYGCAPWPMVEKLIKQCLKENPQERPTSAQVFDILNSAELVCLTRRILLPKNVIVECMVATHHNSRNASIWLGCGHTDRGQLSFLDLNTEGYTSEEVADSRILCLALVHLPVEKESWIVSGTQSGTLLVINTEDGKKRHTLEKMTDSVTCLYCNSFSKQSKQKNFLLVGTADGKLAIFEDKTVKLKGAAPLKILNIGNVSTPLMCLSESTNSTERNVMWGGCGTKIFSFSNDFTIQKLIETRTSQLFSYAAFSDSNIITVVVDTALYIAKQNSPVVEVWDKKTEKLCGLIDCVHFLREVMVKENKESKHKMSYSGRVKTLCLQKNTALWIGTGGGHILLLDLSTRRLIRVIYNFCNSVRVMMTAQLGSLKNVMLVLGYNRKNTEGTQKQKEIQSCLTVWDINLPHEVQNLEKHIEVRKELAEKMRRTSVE

[24] = molecular target: Serine/threonine-protein kinase MARK1 (Homo sapiens) (UniProt Q9P0L2); test: activity of MARK1(h) at 1.0 µM in the Eurofins Kinase panel
[25] = molecular target: Maternal embryonic leucine zipper kinase (Homo sapiens) (UniProt Q14680); test: activity of MELK(h) at 1.0 µM in the Eurofins Kinase panel
[26] = molecular target: Ribosomal protein S6 kinase alpha-5 (Homo sapiens) (UniProt O75582); test: activity of MSK1(h) at 1.0 µM in the Eurofins Kinase panel
[27] = molecular target: Serine/threonine-protein kinase PAK 5 (Homo sapiens) (UniProt Q9P286); test: activity of PAK5(h) at 1.0 µM in the Eurofins Kinase panel
[28] = molecular target: Phosphatidylinositol 4,5-bisphosphate 3-kinase catalytic subunit gamma isoform (Homo sapiens) (UniProt P48736); test: activity of PI3 Kinase (p120gamma)(h) at 1.0 µM in the Eurofins Kinase panel
[29] = molecular target: RAC-gamma serine/threonine-protein kinase (Homo sapiens) (UniProt Q9Y243); test: activity of PKBgamma(h) at 1.0 µM in the Eurofins Kinase panel
[30] = molecular target: Protein kinase C delta type (Homo sapiens) (UniProt Q05655); test: activity of PKCdelta(h) at 1.0 µM in the Eurofins Kinase panel
[31] = molecular target: Serine/threonine-protein kinase N2 (Homo sapiens) (UniProt Q16513); test: activity of PRK2(h) at 1.0 µM in the Eurofins Kinase panel
[32] = molecular target: Ribosomal protein S6 kinase alpha-2 (Homo sapiens) (UniProt Q15349); test: activity of Rsk3(h) at 1.0 µM in the Eurofins Kinase panel
[33] = molecular target: Mitogen-activated protein kinase 14 (Homo sapiens) (UniProt Q16539); test: activity of SAPK2a(h) at 1.0 µM in the Eurofins Kinase panel
[34] = molecular target: SRSF protein kinase 2 (Homo sapiens) (UniProt P78362); test: activity of SRPK2(h) at 1.0 µM in the Eurofins Kinase panel
[35] = molecular target: Tyrosine-protein kinase SYK (Homo sapiens) (UniProt P43405); test: activity of Syk(h) at 1.0 µM in the Eurofins Kinase panel
[36] = molecular target: Serine/threonine-protein kinase tousled-like 2 (Homo sapiens) (UniProt Q86UE8); test: activity of TLK2(h) at 1.0 µM in the Eurofins Kinase panel
[37] = molecular target: Serine/threonine-protein kinase ULK3 (Homo sapiens) (UniProt Q6PHR2); test: activity of ULK3(h) at 1.0 µM in the Eurofins Kinase panel
Chain of Serine/threonine-protein kinase ULK3 (Homo sapiens) (Q6PHR2 whole entry): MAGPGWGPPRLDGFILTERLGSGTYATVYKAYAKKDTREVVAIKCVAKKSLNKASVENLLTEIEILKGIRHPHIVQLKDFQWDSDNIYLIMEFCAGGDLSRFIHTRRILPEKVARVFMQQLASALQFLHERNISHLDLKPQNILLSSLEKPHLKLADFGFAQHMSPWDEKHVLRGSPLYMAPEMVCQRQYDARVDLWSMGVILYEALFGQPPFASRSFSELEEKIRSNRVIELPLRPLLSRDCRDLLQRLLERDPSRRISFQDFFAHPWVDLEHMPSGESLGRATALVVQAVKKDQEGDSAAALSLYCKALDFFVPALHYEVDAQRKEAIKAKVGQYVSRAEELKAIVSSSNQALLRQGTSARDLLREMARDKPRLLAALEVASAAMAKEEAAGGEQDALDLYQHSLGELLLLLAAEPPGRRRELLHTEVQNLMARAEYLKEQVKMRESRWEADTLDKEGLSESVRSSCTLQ

[38] = molecular target: Mitogen-activated protein kinase kinase kinase 20 (Homo sapiens) (UniProt Q9NYL2); test: activity of ZAK(h) at 1.0 µM in the Eurofins Kinase panel

Chain of 5'-AMP-activated protein kinase catalytic subunit alpha-2 (Homo sapiens) (P54646 whole entry, looked up): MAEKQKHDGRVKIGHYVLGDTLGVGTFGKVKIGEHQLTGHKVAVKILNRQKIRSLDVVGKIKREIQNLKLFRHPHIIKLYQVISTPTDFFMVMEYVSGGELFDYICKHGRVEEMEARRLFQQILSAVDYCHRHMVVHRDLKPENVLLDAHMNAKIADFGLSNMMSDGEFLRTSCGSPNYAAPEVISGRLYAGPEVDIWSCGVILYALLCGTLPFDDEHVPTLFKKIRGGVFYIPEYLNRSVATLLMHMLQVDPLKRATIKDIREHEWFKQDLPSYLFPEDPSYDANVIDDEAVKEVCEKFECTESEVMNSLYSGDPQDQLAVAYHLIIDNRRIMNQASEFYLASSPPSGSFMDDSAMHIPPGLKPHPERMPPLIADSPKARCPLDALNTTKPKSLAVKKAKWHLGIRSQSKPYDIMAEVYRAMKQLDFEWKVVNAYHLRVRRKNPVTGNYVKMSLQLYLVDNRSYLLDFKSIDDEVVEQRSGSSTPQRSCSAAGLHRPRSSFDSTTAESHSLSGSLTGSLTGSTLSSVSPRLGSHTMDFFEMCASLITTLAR

## Cc1cc2c(-c3ccc(NC(=O)[C@H](N)CC(C)(C)C)cc3C)ccnc2[nH]1
[1]
  activity: 117%
[2]
  activity: 85%
[3]
  activity: 96%
[4]
  activity: 93%
[5]
  activity: 89%
[6]
  activity: 96%
[7]
  activity: 98%
[8]
  activity: 108%
[9]
  activity: 94%
[10]
  activity: 87%
[11]
  activity: 95%
[12]
  activity: 81%
[13]
  activity: 92%
[14]
  activity: 96%
[15]
  activity: 96%
[16]
  activity: 93%
[17]
  activity: 111%
[18]
  activity: 80%
[19]
  activity: 93%
[20]
  activity: 87%
[21]
  activity: 86%
[22]
  activity: 72%
[23]
  activity: 100%
[24]
  activity: 106%
[25]
  activity: 82%
[26]
  activity: 111%
[27]
  activity: 87%
[28]
  activity: 105%
[29]
  activity: 101%
[30]
  activity: 93%
[31]
  activity: 92%
[32]
  activity: 112%
[33]
  activity: 94%
[34]
  activity: 93%
[35]
  activity: 66%
[36]
  activity: 92%
[37]
  activity: 95%
[38]
  activity: 83%
